Data published in patent EP0337731B1, “Peptide antibiotics” (ELI LILLY AND COMPANY, priority 1988, dated 1989).

Test system: A54145.1, A54145.2, and A54145.3
Assay: Resistance to antibiotics, sensitivity discs on seeded ISP No. 2 agar plates
Type: cell-based, Streptomyces fradiae
Description: A54145.1, A54145.2, and A54145.3 had identical antibiotic-resistance patterns. The strains were resistant to lincomycin at 2 µg and penicillin G at 10 units. The strains were sensitive to bacitracin at 10 units, cephalothin at 30 µg, gentamicin at 10 µg, neomycin at 30 µg, oleandomycin at 15 µg, rifampin at 5 µg, streptomycin at 10 µg, tetracycline at 30 µg, tobramycin at 10 µg and vancomycin at 30 µg.

[H]/N=C(/N)N[C@H]1[C@H](O)[C@@H](O)[C@H](O[C@@H]2O[C@@H](C)[C@](O)(C=O)[C@H]2O[C@@H]2O[C@@H](CO)[C@H](O)[C@@H](O)[C@@H]2NC)[C@@H](N/C(N)=N\[H])[C@@H]1O [streptomycin]
antibiotic-resistance pattern (disc at 10 µg): sensitive

bacitracin
antibiotic-resistance pattern (disc at 10 units): sensitive

NC[C@H]1O[C@H](O[C@H]2[C@H](O)[C@@H](O[C@H]3O[C@H](CO)[C@@H](O)[C@H](N)[C@H]3O)[C@H](N)C[C@@H]2N)[C@H](N)C[C@@H]1O [tobramycin]
antibiotic-resistance pattern (disc at 10 µg): sensitive

CO[C@H]1/C=C/O[C@@]2(C)Oc3c(C)c(O)c4c(O)c(c(/C=N/N5CCN(C)CC5)c(O)c4c3C2=O)NC(=O)/C(C)=C\C=C\[C@H](C)[C@H](O)[C@@H](C)[C@@H](O)[C@@H](C)[C@H](OC(C)=O)[C@@H]1C [rifampin]
antibiotic-resistance pattern (disc at 5 µg): sensitive

CC1(C)S[C@@H]2[C@H](NC(=O)Cc3ccccc3)C(=O)N2[C@H]1C(=O)O [penicillin G]
antibiotic-resistance pattern (disc at 10 units): resistant

CN[C@H](CC(C)C)C(=O)N[C@H]1C(=O)N[C@@H](CC(N)=O)C(=O)N[C@H]2C(=O)N[C@H]3C(=O)N[C@H](C(=O)N[C@H](C(=O)O)c4cc(O)cc(O)c4-c4cc3ccc4O)[C@H](O)c3ccc(c(Cl)c3)Oc3cc2cc(c3O[C@@H]2O[C@H](CO)[C@@H](O)[C@H](O)[C@H]2O[C@H]2C[C@](C)(N)[C@H](O)[C@H](C)O2)Oc2ccc(cc2Cl)[C@H]1O [vancomycin]
antibiotic-resistance pattern (disc at 30 µg): sensitive

neomycin
antibiotic-resistance pattern (disc at 30 µg): sensitive

CCC[C@@H]1C[C@@H](C(=O)N[C@@H]([C@H]2O[C@H](SC)[C@H](O)[C@@H](O)[C@H]2O)[C@@H](C)O)N(C)C1 [lincomycin]
antibiotic-resistance pattern (disc at 2 µg): resistant

gentamicin
antibiotic-resistance pattern (disc at 10 µg): sensitive

CO[C@H]1C[C@H](O[C@H]2[C@H](C)[C@@H](O[C@@H]3O[C@H](C)C[C@H](N(C)C)[C@H]3O)[C@@H](C)C[C@@]3(CO3)C(=O)[C@H](C)[C@@H](O)[C@@H](C)[C@@H](C)OC(=O)[C@@H]2C)O[C@@H](C)[C@@H]1O [oleandomycin]
antibiotic-resistance pattern (disc at 15 µg): sensitive

CC(=O)OCC1=C(C(=O)O)N2C(=O)[C@@H](NC(=O)Cc3cccs3)[C@H]2SC1 [cephalothin]
antibiotic-resistance pattern (disc at 30 µg): sensitive
